We go through 2 compounds from patent US12358948B2, “Neurotensinergic agonists and methods of using same preventing or treating pain” (priority 2019, dated 2025).

SMILES strings stand for the structures. pIC50: −log10 of the molar value. “And” between values parts separate entries of the source, which are not always exact repeats. Equal values may be shown once. “Also recorded” adds a separate entry of the source. Where a SMILES comes first, the peptide text is derived from it. Bridges are numbered along the chain shown (N, C = ends). [ ]: non-standard residue; d: D form. Ala(cPent) = N[C@@H](CC1CCCC1)C(=O)O; AllylGly = C=CC[C@H](N)C(=O)O

The test system of one series is ileum. Briefly: Ileum relaxation assay ex vivo. Set-up: species or system rat. The settings on record: 10^−11 to 10^−5 M, after contraction with carbachol. The protocol: The functional ileum bioassay was carried out as described in detail elsewhere. (Van der Poorten, O., Van Den Hauwe, R., Eiselt, E., Betti, C., Guillemyn, K., Chung, N. N., Hall, F., Bihel, F., Schiller, P. W., Tourwé, D., Sarret, P., Gendron, L, . . . Ballet, S. (2017). X-Space Screening of Dermorphin-Based Tetrapeptides through Use of Constrained Arylazepinone and Quinolinone Scaffolds. ACS medicinal chemistry letters, 8(11), 1177-1182) Briefly, rats were euthanized, and 2 cm ileum segments were dissected out before removal of extraneous fat and connective tissue.
The ileum was then mounted under 0.5-g tension in a 10 mL organ bath containing warmed (37° C.) and oxygenated (95% O2, 5% CO2) Krebs solution (6.9 g/L NaCl, 0.145 g/L MgSO4, 2.1 g/L NaHCO3, 0.35 g/L KCl, 0.165 g/L KH2PO4, 1.98 g/L dextrose and 0.28 g/L CaCl2)). […] Contractions of the muscle were recorded via an isometric force transducer (159901A, Radnoti, Monrovia, CA, USA). […]
Each concentration of the compounds tested were followed by 2×15-min washout periods in Krebs solution to allow full relaxation. Dose-response curves were obtained with NT (8-13) (10^−11 to 10^−6) as standard for each ileum and for compound 34(10^−11 to 10^−5) and IC50 values were determined. […]
Data are expressed as mean±standard errors of the mean (SEM). […]

The next series concerns the target T1, hNTS1 receptor (Homo sapiens, UniProt P30989).
T1 construct: membranes prepared from them
Briefly: Competitive radioligand binding assay on the hNTS1 receptor. Particulars: IC50 NTS1, displacement of 125I-[Tyr3]-NT, membranes of CHO-K1 cells expressing hNTS1. In short, it runs like this:
(§1)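 Membranes from CHO-K1 cells expressing hNTS1 (15 µg, […] ¹²⁵I-[Tyr³]-NT) or 1321N1 cells expressing hNTS2 (50 µg, […] radioligand) were incubated with analogues at 10⁻¹¹–10⁻⁴ M for 60 min at 25 °C in Tris-HCl pH 7.5/0.2% BSA. Filtration and γ-counting followed; nonspecific binding was defined with 10⁻⁵ M NT(8-13), and IC50 was obtained by one-site fit.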
On the technique in general: Loss of bound radioactivity is the signal in a displacement assay; it reports binding, not function.

Another series deals with T2, hNTS2 receptor (Homo sapiens, UniProt O95665).
T2 construct: membranes prepared from them
Description: Competitive radioligand binding assay on the hNTS2 receptor. The settings on record: for pIC50: IC50 NTS2, displacement of 125I-[Tyr3]-NT, membranes of 1321N1 cells expressing hNTS2; for Selectivity: ratio IC50 for NTS1 : IC50 for NTS2. A digest of the protocol:
as §1

T1 sequence (P30989 whole entry): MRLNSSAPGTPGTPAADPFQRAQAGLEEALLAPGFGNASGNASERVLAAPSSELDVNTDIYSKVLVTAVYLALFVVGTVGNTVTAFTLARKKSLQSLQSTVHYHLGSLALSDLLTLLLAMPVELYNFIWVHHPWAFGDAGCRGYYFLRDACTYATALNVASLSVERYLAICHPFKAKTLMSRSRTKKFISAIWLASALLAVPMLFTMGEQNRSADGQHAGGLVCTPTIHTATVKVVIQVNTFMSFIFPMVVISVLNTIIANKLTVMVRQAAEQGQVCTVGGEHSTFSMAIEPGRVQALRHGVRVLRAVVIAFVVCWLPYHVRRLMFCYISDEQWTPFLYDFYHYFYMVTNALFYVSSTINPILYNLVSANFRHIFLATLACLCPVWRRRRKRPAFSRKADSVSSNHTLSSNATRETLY
T2 sequence (O95665 whole entry): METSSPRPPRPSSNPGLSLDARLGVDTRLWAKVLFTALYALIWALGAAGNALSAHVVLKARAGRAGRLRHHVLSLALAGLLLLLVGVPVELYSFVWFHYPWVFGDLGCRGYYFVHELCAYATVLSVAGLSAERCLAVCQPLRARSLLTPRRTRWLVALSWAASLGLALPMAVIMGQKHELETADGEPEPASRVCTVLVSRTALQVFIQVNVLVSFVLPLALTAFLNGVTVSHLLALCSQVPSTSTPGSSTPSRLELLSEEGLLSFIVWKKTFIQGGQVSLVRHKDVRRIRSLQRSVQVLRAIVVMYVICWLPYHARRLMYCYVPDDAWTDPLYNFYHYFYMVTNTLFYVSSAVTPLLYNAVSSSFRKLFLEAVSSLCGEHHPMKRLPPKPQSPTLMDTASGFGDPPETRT

As for `CC(C)C[C@H](NC(=O)[C@H](Cc1ccc(O)cc1)NC(=O)[C@@H]1CC=CC[C@H](N)C(=O)N[C@@H](CCCCN)C(=O)N[C@@H](CCCCN)C(=O)N1)C(=O)O` [compound 34, c[G(All)KKG(All)]YL] (H-[AllylGly]KK[AllylGly]YL-OH; staple 1-4), in the series on ileum, the Ileum relaxation entry is given as “doesn't impact gut motility; also recorded: No ileum”. Moreover, the pIC50 on hNTS1 receptor is 3.70 and 4.00; at hNTS2 receptor, 7.22. For the same compound, at hNTS2 receptor, the Selectivity was 3339 and 1685.
On to `NCCCC[C@@H]1NC(=O)[C@H](CCCCN)NC(=O)[C@@H](N)CC=CC[C@@H](C(=O)N[C@@H](Cc2ccc(O)cc2)C(=O)N[C@@H](CC2CCCC2)C(=O)O)NC1=O` [compound 67, c[G(All)KKG(All)]YA(cyclopentyl)] (H-[AllylGly]KK[AllylGly]Y[Ala(cPent)]-OH; staple 1-4), for which the pIC50 on hNTS1 receptor is below 4.00. Further, at hNTS2 receptor, the pIC50 is 8.51 and the Selectivity is listed as >32 680.

In general, pIC50 refers to the negative decadic logarithm of the IC50, by convention in mol/L. Low readings indicate a high IC50, high ones a low IC50.
